Source: patent publication US8987199B2, “Pharmaceutical compositions for intranasal administration for the treatment of neurodegenerative disorders” (Nerve Access, Inc., priority 2011, dated 2015)

Assay: Solubility of clioquinol in an aqueous medium
Type: physicochemical
From the text: The invention also includes a process to dissolve, stabilize and incorporate clioquinol into an intranasal preparation. Clioquinol dissolves in DMSO. However, it precipitates upon the addition of an aqueous vehicle to that combination. In order to dissolve in an aqueous medium clioquinol requires a pH of approximately 11. A buffering system was developed that maintains the solubility and stability of clioquinol within a pH 7-8 which is compatible with the physiological pH oh the nasal tissue. The buffering system was adjusted to provide a capacity of pH 5-7, within which the preparation will be contained within 7-8 pH. The choice of the buffering system was based on the safety, chemical and physical effects of its ingredients on clioquinol and the other ingredients incorporated in the formula, as well as its effects on the end user of present pharmaceutical composition. The buffer system comprises boric acid and sodium carbonate in certain proportions to produce a protective pH 7-8 at which clioquinol stays physically and chemically stable.

## Oc1c(I)cc(Cl)c2cccnc12 [Clioquinol]
  pH required to dissolve in an aqueous medium: approximately 11
